Results published in ChEMBL document CHEMBL4145520, “Small-molecule Mcl-1 inhibitors: Emerging anti-tumor agents” (Eur J Med Chem, 2018).

Tests used:
[1] = biological target: T1, Induced myeloid leukemia cell differentiation protein Mcl-1 (Homo sapiens, UniProt Q07820); test: Inhibition of FITC-BAK binding to MCL1 (172 to 327 residues) (unknown origin) by fluorescence polarization assay
[2] = Induction of apoptosis in human MOLP8 cells assessed as caspase 3/7 activation after 2 hrs by caspase-Glo 3/7 assay; format: functional, cell-based; settings: MOLP-8, 2 h
[3] = biological target: T1, Induced myeloid leukemia cell differentiation protein Mcl-1; test: Inhibition of N-terminal 26 residues truncated 5-FAM labelled Bid-BH3 binding to MCL1 (unknown origin) by fluorescence polarization assay
[4] = Antiproliferative activity against human NCI-H2110 cells after 48 hrs by CellTiter-Glo assay; format: functional, cell-based; settings: NCI-H2110, 48 h
NCI-H23 = test: Antiproliferative activity against human NCI-H23 cells after 48 hrs by CellTiter-Glo assay; format: functional, cell-based; settings: NCI-H23, 48 h
[5] = Selectivity ratio of IC50 for human HL60 cells to IC50 for human NCI-H345 cells; format: functional
HL-60 = test: Induction of apoptosis in human HL60 cells after 48 hrs by Annexin V-FITC staining based flow cytometry; format: functional, cell-based; settings: HL-60, 48 h
NCI-H345 = test: Induction of apoptosis in human NCI-H345 cells after 48 hrs by Annexin V-FITC staining based flow cytometry; format: functional, cell-based; settings: NCI-H345, 48 h
[6] = biological target: T1, Induced myeloid leukemia cell differentiation protein Mcl-1; test: Displacement of FAM labelled Bid-derived peptide from MCL1 (unknown origin) incubated for 1 min by fluorescence polarization assay
[7] = biological target: Apoptosis regulator Bcl-2 (Homo sapiens, UniProt P10415); test: Displacement of FAM labelled Bid-derived peptide from Bcl-2 (unknown origin) incubated for 1 min by fluorescence polarization assay
Homo sapiens = species on record: Homo sapiens; test: Selectivity ratio of Ki for Bcl-2 (unknown origin) to Ki for MCL1 (unknown origin)
[8] = biological target: T1, Induced myeloid leukemia cell differentiation protein Mcl-1; test: Inhibition of Mcl-1 (unknown origin) by TR-FRET assay
RS4-11 [9] = test: Cytotoxicity against human RS4:11 cells assessed as reduction in cell viability; format: functional, cell-based
MDA-MB-468 = test: Cytotoxicity against human MDA-MB-468 cells assessed as reduction in cell viability by MTT assay; format: functional, cell-based
Bcl-2-like protein 1 [10] = biological target: T2, Bcl-2-like protein 1 (Homo sapiens, UniProt Q07817); test: Inhibition of biotin labelled Bid-BH3 binding to GST-tagged BCL-XL (unknown origin) preincubated for 15 mins followed by biotin labelled Bid-BH3 addition measured after 2 hrs by ELISA
[11] = biological target: T1, Induced myeloid leukemia cell differentiation protein Mcl-1; test: Binding affinity to MCL1 (unknown origin) by surface plasma resonance method
RS4-11 [12] = test: Cytotoxicity against human RS4:11 cells assessed as reduction in cell viability after 72 hrs; format: functional, cell-based; settings: RS4-11, 72 h
HeLa = test: Cytotoxicity against human HeLa cells assessed as reduction in cell viability after 72 hrs; format: functional, cell-based
Bcl-2-like protein 1 [13] = biological target: T2, Bcl-2-like protein 1; test: Inhibition of biotin labelled Bid-BH3 binding to C-terminal GST-tagged human BCL-XL […] expressed in Escherichia coli BL21 (DE3) preincubated for 1 hr followed by followed by biotin labelled Bid-BH3 addition measured after 2 hrs by ELISA
A-375 = test: Growth inhibition of human A375 cells after 48 hrs by CellTiter-Blue assay; format: functional; settings: A-375, 48 h
[14] = biological target: T1, Induced myeloid leukemia cell differentiation protein Mcl-1; test: Inhibition of FITC-BAK binding to His6 tagged MBP fused recombinant human MCL1 (172 to 327 residues) expressed in Escherichia coli by fluorescence polarization competition assay
[15] = Inhibition of recombinant FITC tagged Bid-BH3 binding to BCL-XL deltaC (unknown origin) expressed in Escherichia coli BL21 (DE3) by fluorescence polarization assay; parameters: species or system Homo sapiens
B-ALL = test: Cytotoxicity against human B-ALL cells assessed as reduction in cell viability after 24 hrs by CellTiter-Glo luminescent assay; format: functional, cell-based
[16] = biological target: T1, Induced myeloid leukemia cell differentiation protein Mcl-1; test: Inhibition of His6 tagged MBP fused Mcl-1 (unknown origin) after 0.5 hrs by fluorescence polarization assay
[17] = biological target: T1, Induced myeloid leukemia cell differentiation protein Mcl-1; test: Inhibition of FAM labelled Bid-BH3 binding to N-terminal GST-tagged human recombinant MCL1 expressed in Escherichia coli […] after 60 mins by TR-FRET assay

T1 sequence (Q07820 whole entry, the tested form may be a part): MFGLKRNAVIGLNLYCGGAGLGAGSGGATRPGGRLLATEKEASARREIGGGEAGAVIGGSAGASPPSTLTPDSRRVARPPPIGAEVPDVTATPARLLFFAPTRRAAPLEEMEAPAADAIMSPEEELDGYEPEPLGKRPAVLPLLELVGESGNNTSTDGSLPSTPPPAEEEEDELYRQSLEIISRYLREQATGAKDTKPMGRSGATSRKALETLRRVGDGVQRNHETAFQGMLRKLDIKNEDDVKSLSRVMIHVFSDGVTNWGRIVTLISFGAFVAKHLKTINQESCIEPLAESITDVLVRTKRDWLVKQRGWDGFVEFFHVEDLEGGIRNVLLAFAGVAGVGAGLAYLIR
T2 sequence (Q07817 whole entry): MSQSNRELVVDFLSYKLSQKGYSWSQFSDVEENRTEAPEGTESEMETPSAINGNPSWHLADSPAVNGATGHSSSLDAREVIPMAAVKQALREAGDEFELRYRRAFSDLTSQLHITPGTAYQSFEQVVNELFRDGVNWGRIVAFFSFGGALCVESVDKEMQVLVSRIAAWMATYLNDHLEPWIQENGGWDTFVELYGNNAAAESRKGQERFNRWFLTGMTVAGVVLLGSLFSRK
Chain of Apoptosis regulator Bcl-2 (P10415 whole entry): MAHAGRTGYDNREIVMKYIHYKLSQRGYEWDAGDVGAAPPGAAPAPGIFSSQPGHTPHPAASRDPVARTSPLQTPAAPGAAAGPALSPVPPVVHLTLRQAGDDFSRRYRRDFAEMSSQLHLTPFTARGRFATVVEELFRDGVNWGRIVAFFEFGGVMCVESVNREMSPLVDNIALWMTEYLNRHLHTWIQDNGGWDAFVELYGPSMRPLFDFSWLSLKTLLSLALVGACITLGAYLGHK

Question: Which Ki [1] does the source give for `Cc1cc(Oc2ccc(C(=O)O)c(OCc3ccccc3)n2)cc(C)c1Cl` here?
Answer: 2900 nM

Question: For `Cc1c(-c2cccc3c(CCCOc4cccc5ccccc45)c(C(=O)O)[nH]c23)c(COc2ccccc2)nn1C`, which EC50 [2] is on record?
Answer: > 11000 nM

Question: Which Ki [3] does the source give for `COc1cc(NC(=O)CCC(=O)N2CCN(Cc3cccc(-c4ccc(Cl)cc4)c3)CC2)cc(OC)c1OC` here?
Answer: 320 nM

Question: For `O=C(O)c1[nH]c2ccccc2c1CCCCC1CCCCC1`, which EC50 [4] is on record?
Answer: 5300 nM

Question: What about the EC50 (NCI-H23) of the same molecule?
Answer: 7200 nM

Question: For `O=C(O)c1cc2ccccc2n1S(=O)(=O)c1ccc(OCc2cccc(Cl)c2)cc1`, which “Ratio IC50” value [5] is on record?
Answer: 30

Question: What about the IC50 (HL-60) of the same molecule?
Answer: 63300 nM

Question: What about the IC50 (NCI-H345) of the same molecule?
Answer: 2200 nM

Question: And the Ki [6]?
Answer: 480 nM

Question: What about the Ki [7] of the same molecule?
Answer: 3600 nM

Question: And the Ratio Ki (Homo sapiens)?
Answer: 7.5

Question: For `CC1(C)CCC(CN2CCN(c3ccc(C(=O)NS(=O)(=O)c4ccc(NCC5CCOCC5)c([N+](=O)[O-])c4)c(Oc4cnc5[nH]ccc5c4)c3)CC2)=C(c2ccc(Cl)cc2)C1` [VENETOCLAX], which Ki [8] is on record?
Answer: > 444 nM

Question: And the IC50 (RS4-11 [9])?
Answer: 1.5 to 5 nM

Question: With `Cc1c(-c2cccc3c(CCCOc4cccc5ccccc45)c(C(=O)O)[nH]c23)c(COc2cccc(C=O)c2)nn1C` as the molecule, how does the EC50 [2] read?
Answer: > 11000 nM

Question: With `Cc1c(-c2cccc3c(CCCOc4cccc5ccccc45)c(C(=O)O)[nH]c23)c(COc2ccc(B(O)O)c(C=O)c2)nn1C` as the molecule, how does the EC50 [2] read?
Answer: 460 nM

Question: For `CC(=O)c1cc(OCc2nn(C)c(C)c2-c2cccc3c(CCCOc4cccc5ccccc45)c(C(=O)O)[nH]c23)ccc1B(O)O`, which EC50 [2] is on record?
Answer: 170 nM

Question: With `O=C(O)CSc1ccc(C(=O)c2[nH]c(Cl)c(Cl)c2-n2c(C(=O)c3ccc(SCC(=O)O)cc3O)cc(Cl)c2Cl)c(O)c1` as the molecule, how does the IC50 (MDA-MB-468) read?
Answer: 29000 nM

Question: What about the IC50 (Bcl-2-like protein 1 [10]) of the same molecule?
Answer: > 100000 nM

Question: Which Kd [11] does the source give for `N#CC1=C(NCCC(=O)O)c2ccc(Sc3ccc(Br)cc3)c3cccc(c23)C1=O` here?
Answer: 150 nM

Question: Which results are given for `O=C(c1ccccc1O)c1[nH]c(Cl)c(Cl)c1-n1c(C(=O)c2ccccc2O)cc(Cl)c1Cl`?
Answer: IC50 (RS4-11 [12]): 2000 nM; IC50 (HeLa): 20000 nM; IC50 (Bcl-2-like protein 1 [13]): > 80000 nM

Question: With `COc1cc(CC(=O)NCc2ccc(C(=O)N3CCN(Cc4ccccc4-c4ccccc4)CC3)cc2)cc(OC)c1OC` as the molecule, how does the Ki [3] read?
Answer: 180 nM

Question: Which results are given for `Cc1cc(Oc2ccc(S(=O)(=O)N3CC(C(=O)O)Cc4ccccc43)cc2)cc(C)c1Cl` (stereo not drawn)?
Answer: GI50 (A-375): 50000 nM; Ki [14]: 120 nM

Question: Which EC50 [2] does the source give for `Cc1c(-c2cccc3c(CCCOc4cccc5ccccc45)c(C(=O)O)n(C)c23)c(COc2ccc(B(O)O)c(C=O)c2)nn1C` here?
Answer: 75 nM

Question: Which EC50 [2] does the source give for `CC(=O)c1cccc(OCc2nn(C)c(C)c2-c2cccc3c(CCCOc4cccc5ccccc45)c(C(=O)O)[nH]c23)c1` here?
Answer: 2700 nM

Question: With `CCc1nn(C)c(CC)c1-c1cccc2c(CCCOc3cccc4ccccc34)c(C(=O)O)n(CCN3CCOCC3)c12` as the molecule, how does the EC50 [2] read?
Answer: 350 nM

Question: Which IC50 [15] does the source give for `Cc1cs/c(=N\C2CCCCC2)n1/N=C/c1ccc(O)c(O)c1O` here?
Answer: > 50000 nM

Question: What about the IC50 (B-ALL) of the same molecule?
Answer: 4200 nM

Question: Which Ki [16] does the source give for `Cc1cc(OCCCc2c3n(c4c(-c5c(C)nn(C)c5C)c(Cl)ccc24)CCCC(c2cc(C(=O)O)c4ccn(C)c4c2)C3=O)cc(C)c1Cl` (stereo not drawn) here?
Answer: < 1 nM

Question: What does the source list for `Cc1c(-c2cccc3c(CCCOc4cccc5ccccc45)c(C(=O)O)[nH]c23)c(COc2ccc(B(O)O)cc2)nn1C`?
Answer: EC50 [2]: > 11000 nM; IC50 [17]: 162 nM
